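The compound was tested at five concentrations on cells cultured in 96-well plates, with a 48-hour exposure period. GI50 is the concentration that inhibits growth by half.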 Activity calls are given as the source filed them. Cut-off read from the data, not from the text of the source: active = GI50 up to about 1.1 µM and inactive = higher.
Tests used:
Assay in all cases: growth of human tumour cells (NCI), 48 h
BT-549 = tested on: BT-549
EKVX = tested on: EKVX
NCI-H23 = tested on: NCI-H23
UO-31 = tested on: UO-31
MDA-MB-231 = tested on: MDA-MB-231
SF-268 = tested on: SF-268
SK-MEL-2 = tested on: SK-MEL-2
A498 = tested on: A498
A549 = tested on: A549
NCI-H226 = tested on: NCI-H226
CAKI-1 = tested on: CAKI-1
HCT-15 = tested on: HCT-15
UACC-62 = tested on: UACC-62
Hs-578T = tested on: Hs-578T
MDA-MB-435 = tested on: MDA-MB-435
TK-10 = tested on: TK-10
OVCAR-3 = tested on: OVCAR-3
786-0 = tested on: 786-0
KM12 = tested on: KM12
SF-539 = tested on: SF-539
LOX IMVI = tested on: LOX IMVI
COLO 205 = tested on: COLO 205
SNB-75 = tested on: SNB-75
MCF7 = tested on: MCF7
OVCAR-8 = tested on: OVCAR-8
HOP-92 = tested on: HOP-92
UACC-257 = tested on: UACC-257
SF-295 = tested on: SF-295
SW-620 = tested on: SW-620
HCC 2998 = tested on: HCC 2998
U-251 = tested on: U-251
SK-MEL-28 = tested on: SK-MEL-28
CCRF-CEM = tested on: CCRF-CEM
SN12C = tested on: SN12C
MOLT-4 = tested on: MOLT-4
RXF 393 = tested on: RXF 393
OVCAR-5 = tested on: OVCAR-5
DU-145 = tested on: DU-145
K562 = tested on: K562
T47D = tested on: T47D
SNB-19 = tested on: SNB-19
OVCAR-4 = tested on: OVCAR-4
RPMI-8226 = tested on: RPMI-8226
HOP-62 = tested on: HOP-62
HCT-116 = tested on: HCT-116
SK-OV-3 = tested on: SK-OV-3
IGROV-1 = tested on: IGROV-1
ACHN = tested on: ACHN
PC-3 = tested on: PC-3
NCI/ADR-RES = tested on: NCI/ADR-RES
HT-29 = tested on: HT-29
SK-MEL-5 = tested on: SK-MEL-5
M14 = tested on: M14
NCI-H522 = tested on: NCI-H522
Malme-3M = tested on: Malme-3M
HL-60 = tested on: HL-60
NCI-H460 = tested on: NCI-H460
SR = tested on: SR

In the case of `Cc1ccc(S(=O)(=O)CC2CCCn3c2c(C#N)c2ccccc23)cc1` (configuration not stated), the GI50 (BT-549) is reported as > 100 µM (inactive), the GI50 (EKVX) is reported as > 100 µM (inactive) and the GI50 (NCI-H23) is reported as > 100 µM (inactive). The GI50 (UO-31) was > 100 µM (inactive), the GI50 (MDA-MB-231) was > 100 µM (inactive) and the GI50 (SF-268) was > 100 µM (inactive). The GI50 (SK-MEL-2) was > 100 µM (inactive), the GI50 (A498) was > 100 µM (inactive) and the GI50 (A549) was > 100 µM (inactive). The GI50 (NCI-H226) was > 100 µM (inactive), the GI50 (CAKI-1) was > 100 µM (inactive) and the GI50 (HCT-15) was greater than 100 µM. For the same molecule, the GI50 (UACC-62) was 57.4 µM (inactive), the GI50 (Hs-578T) was > 100 µM (inactive) and the GI50 (MDA-MB-435) was > 100 µM (inactive). The GI50 (TK-10) was > 100 µM (inactive), the GI50 (OVCAR-3) was > 100 µM (inactive) and the GI50 (786-0) was > 100 µM (inactive). For the same molecule, the GI50 (KM12) was > 100 µM (inactive), the GI50 (SF-539) was > 100 µM (inactive) and the GI50 (LOX IMVI) was > 100 µM (inactive). For the same molecule, the GI50 (COLO 205) was > 100 µM (inactive), the GI50 (SNB-75) was > 100 µM (inactive) and the GI50 (MCF7) was > 100 µM (inactive). For the same molecule, the GI50 (OVCAR-8) was > 100 µM (inactive), the GI50 (HOP-92) was > 100 µM (inactive) and the GI50 (UACC-257) was > 100 µM (inactive). The GI50 (SF-295) was > 100 µM (inactive), the GI50 (SW-620) was > 100 µM (inactive) and the GI50 (HCC 2998) was > 100 µM (inactive). For the same molecule, the GI50 (U-251) was > 100 µM (inactive), the GI50 (SK-MEL-28) was > 100 µM (inactive) and the GI50 (CCRF-CEM) was > 100 µM (inactive). For the same molecule, the GI50 (SN12C) was > 100 µM (inactive), the GI50 (MOLT-4) was > 100 µM (inactive) and the GI50 (RXF 393) was > 100 µM (inactive). The GI50 (OVCAR-5) was > 100 µM (inactive), the GI50 (DU-145) was > 100 µM (inactive) and the GI50 (K562) was > 100 µM (inactive). For the same molecule, the GI50 (T47D) was 73.3 µM (inactive), the GI50 (SNB-19) was > 100 µM (inactive) and the GI50 (OVCAR-4) was > 100 µM (inactive). The GI50 (RPMI-8226) was > 100 µM (inactive), the GI50 (HOP-62) was > 100 µM (inactive) and the GI50 (HCT-116) was > 100 µM (inactive). The GI50 (SK-OV-3) was > 100 µM (inactive), the GI50 (IGROV-1) was > 100 µM (inactive) and the GI50 (ACHN) was > 100 µM (inactive). For the same molecule, the GI50 (PC-3) was 54.2 µM (inactive), the GI50 (NCI/ADR-RES) was 65.5 µM (inactive) and the GI50 (HT-29) was > 100 µM (inactive). For the same molecule, the GI50 (SK-MEL-5) was > 100 µM (inactive), the GI50 (M14) was > 100 µM (inactive) and the GI50 (NCI-H522) was > 100 µM (inactive).

In the case of `N=C(N)N/N=C/c1c(-c2ccc(Cl)c([N+](=O)[O-])c2)nc2sc(Cl)cn12`, the GI50 (Malme-3M) is reported as 2.84 µM (inactive), the GI50 (BT-549) is reported as 1.69 µM (inactive) and the GI50 (EKVX) is reported as 2.83 µM (inactive). The GI50 (NCI-H23) was 3.68 µM (inactive), the GI50 (UO-31) was 1.84 µM (inactive) and the GI50 (MDA-MB-231) was 1.97 µM (inactive). The GI50 (SF-268) was 2.68 µM (inactive), the GI50 (SK-MEL-2) was 1.69 µM (inactive) and the GI50 (A498) was 1.95 µM (inactive). The GI50 (A549) was 2.47 µM (inactive), the GI50 (NCI-H226) was 41.4 µM (inactive) and the GI50 (CAKI-1) was 2.34 µM (inactive). For the same molecule, the GI50 (HCT-15) was 2.29 µM, the GI50 (UACC-62) was 1.95 µM (inactive) and the GI50 (Hs-578T) was 2.33 µM (inactive). The GI50 (MDA-MB-435) was 2.25 µM (inactive), the GI50 (TK-10) was 28.8 µM (inactive) and the GI50 (OVCAR-3) was 1.51 µM (inactive). The GI50 (786-0) was 3.15 µM (inactive), the GI50 (KM12) was 2.56 µM (inactive) and the GI50 (SF-539) was 2.3 µM (inactive). For the same molecule, the GI50 (HL-60) was 3.45 µM (inactive), the GI50 (LOX IMVI) was 2.44 µM (inactive) and the GI50 (COLO 205) was 1.64 µM (inactive). The GI50 (NCI-H460) was 2.7 µM (inactive), the GI50 (MCF7) was 2.39 µM (inactive) and the GI50 (OVCAR-8) was 1.77 µM (inactive). For the same molecule, the GI50 (HOP-92) was 1.67 µM (inactive), the GI50 (UACC-257) was 1.91 µM (inactive) and the GI50 (SF-295) was 2.2 µM (inactive). The GI50 (SW-620) was 2.2 µM (inactive), the GI50 (HCC 2998) was 3.27 µM (inactive) and the GI50 (U-251) was 2.95 µM (inactive). For the same molecule, the GI50 (SK-MEL-28) was 1.94 µM (inactive), the GI50 (CCRF-CEM) was 0.565 µM (active) and the GI50 (SN12C) was 2.32 µM (inactive). The GI50 (MOLT-4) was 1.63 µM (inactive), the GI50 (RXF 393) was 1.77 µM (inactive) and the GI50 (OVCAR-5) was 4.17 µM (inactive). For the same molecule, the GI50 (DU-145) was 1.95 µM (inactive), the GI50 (K562) was 0.617 µM (active) and the GI50 (T47D) was 1.23 µM (inactive). The GI50 (SNB-19) was 1.79 µM (inactive), the GI50 (OVCAR-4) was 2.04 µM (inactive) and the GI50 (RPMI-8226) was 2.99 µM (inactive). For the same molecule, the GI50 (HOP-62) was 3.85 µM (inactive), the GI50 (HCT-116) was 3.38 µM (inactive) and the GI50 (IGROV-1) was 1.65 µM (inactive). For the same molecule, the GI50 (ACHN) was 1.98 µM (inactive), the GI50 (PC-3) was 1.88 µM (inactive) and the GI50 (NCI/ADR-RES) was 46 µM (inactive). The GI50 (HT-29) was 2.36 µM (inactive), the GI50 (SK-MEL-5) was 4.07 µM (inactive) and the GI50 (M14) was 2.79 µM (inactive). The GI50 (NCI-H522) was 1.51 µM (inactive) and the GI50 (SR) was 1.44 µM (inactive).

In the case of `NNC(=O)c1ccccc1Nc1nc(-c2cccs2)nc2ccc(Br)cc12`, the GI50 (Malme-3M) is reported as > 100 µM (inactive), the GI50 (BT-549) is reported as 84.1 µM (inactive) and the GI50 (EKVX) is reported as > 100 µM (inactive). The GI50 (NCI-H23) was > 100 µM (inactive), the GI50 (UO-31) was > 100 µM (inactive) and the GI50 (MDA-MB-231) was > 100 µM (inactive). For the same molecule, the GI50 (SF-268) was 31.1 µM (inactive), the GI50 (SK-MEL-2) was > 100 µM (inactive) and the GI50 (A498) was > 100 µM (inactive). The GI50 (A549) was 85.1 µM (inactive), the GI50 (NCI-H226) was > 100 µM (inactive) and the GI50 (CAKI-1) was 74.3 µM (inactive). For the same molecule, the GI50 (HCT-15) was 14.7 µM, the GI50 (UACC-62) was > 100 µM (inactive) and the GI50 (Hs-578T) was > 100 µM (inactive). For the same molecule, the GI50 (MDA-MB-435) was 77.4 µM (inactive), the GI50 (TK-10) was > 100 µM (inactive) and the GI50 (OVCAR-3) was 25.9 µM (inactive). The GI50 (786-0) was 49.5 µM (inactive), the GI50 (KM12) was 67.5 µM (inactive) and the GI50 (SF-539) was > 100 µM (inactive). The GI50 (HL-60) was 71.3 µM (inactive), the GI50 (LOX IMVI) was 44.9 µM (inactive) and the GI50 (COLO 205) was > 100 µM (inactive). For the same molecule, the GI50 (NCI-H460) was 87.3 µM (inactive), the GI50 (SNB-75) was 45.4 µM (inactive) and the GI50 (MCF7) was 49.5 µM (inactive). For the same molecule, the GI50 (OVCAR-8) was 55 µM (inactive), the GI50 (HOP-92) was > 100 µM (inactive) and the GI50 (UACC-257) was > 100 µM (inactive). For the same molecule, the GI50 (SF-295) was 51.8 µM (inactive), the GI50 (SW-620) was > 100 µM (inactive) and the GI50 (HCC 2998) was 90.4 µM (inactive). The GI50 (U-251) was 23.2 µM (inactive), the GI50 (SK-MEL-28) was 45.5 µM (inactive) and the GI50 (CCRF-CEM) was > 100 µM (inactive). The GI50 (SN12C) was 37.2 µM (inactive), the GI50 (MOLT-4) was > 100 µM (inactive) and the GI50 (OVCAR-5) was > 100 µM (inactive). For the same molecule, the GI50 (DU-145) was > 100 µM (inactive), the GI50 (K562) was 77.6 µM (inactive) and the GI50 (T47D) was 47.8 µM (inactive). For the same molecule, the GI50 (SNB-19) was 53.3 µM (inactive), the GI50 (OVCAR-4) was 6.7 µM (inactive) and the GI50 (RPMI-8226) was > 100 µM (inactive). For the same molecule, the GI50 (HOP-62) was > 100 µM (inactive), the GI50 (HCT-116) was 70 µM (inactive) and the GI50 (SK-OV-3) was > 100 µM (inactive). The GI50 (IGROV-1) was > 100 µM (inactive), the GI50 (ACHN) was > 100 µM (inactive) and the GI50 (PC-3) was 44.4 µM (inactive). The GI50 (NCI/ADR-RES) was > 100 µM (inactive), the GI50 (HT-29) was 78.5 µM (inactive) and the GI50 (SK-MEL-5) was 74 µM (inactive). The GI50 (M14) was 86.7 µM (inactive), the GI50 (NCI-H522) was > 100 µM (inactive) and the GI50 (SR) was > 100 µM (inactive).

From ChEMBL document CHEMBL1201862, “PubChem BioAssay data set” (2004)
